# Results as given in US11691951B2 (Curtana Pharmaceuticals, Inc., priority 2015, dated 2023).
# System: GBM8 cells (human glioblastoma neurosphere cell culture)
# Test: GBM8 viability assay (Cell Titer Glo luminescence, 3 days)
# Format: cell-based
# Conditions: 72 h, 3 days incubation
# Method: Example 283: GBM4 and GBM8 Viability Assay
# Cell culture medium was prepared from a NSA proliferation kit (Neurocult) and NeuroCult supplements (Stemcell Tech Cat. #05751) and treated with 20 μL of 10 μg/mL rh EGF, 10 μL of 10 μg/mL rh bFGF and 10 μL of 0.2% Heparin. In this medium, human glioblastoma cells were cultured in ultra-low attachment tissue culture flasks until 1×10^6 cells ml was achieved (GBM4 and GBM8 are distinct neurosphere cell cultures derived from these human patient tissues). GBM4 and GBM8 cells were dissociated and 10 mL of media containing 4000 human glioblastoma cells per 90 uL were transferred to an ultra-low binding 96-well plate and incubated at 37° C. overnight. On the following day, 10 μL of a 1% DMSO solution of test compound in assay medium was added to wells containing the cell suspension and the mixture incubated at 37° C. for 3 days. At this time, the plate was removed from the incubator and allowed to reach room temperature. After about 30 minutes, 50 μL of Cell Titer Glo solution was added to each well and the plate shaken for 1 minute at low speed. After 10 minutes luminescence was recorded using a Tecan Safire2 reader.
# Reduction in luminescence compared to DMSO only control wells was used to determine the percentage inhibition of cell growth. IC50s were calculated using the % inhibition of luminescence for serial dilutions of compounds fitted to a 4-parameter fit within the Prism (San Diego) curve fitting program.
row,SMILES,IC50 [nM]
1,COc1ccc(NC(=O)Nc2nc(C)cc(NCCN(C)C)n2)cc1 [Compound 138],< 1000
2,Cc1cc(NCCCc2cnc[nH]2)nc(NC(=O)Nc2ccc(Cl)c(C(F)(F)F)c2)n1 [Compound 59],< 1000
3,Cc1cc(NCCN)nc(NC(=O)Nc2cccc(OC(F)(F)F)c2)n1 [Compound 178],< 1000
4,"COc1ccc(NC(=O)Nc2nc(C)cc(NCCNC(C)=O)n2)cc1 [Compound 276, N-(2-((2-(3-(4-methoxyphenyl)ureido)-6-methylpyrimidin-4-yl)amino)ethyl)acetamide]",< 1000
5,"CNCCNc1cc(C)nc(NC(=O)Nc2ccc3c(c2)OCO3)n1 [Compound 288, 1-(benzo[d][1,3]dioxol-5-yl)-3-(4-methyl-6-((2-(methylamino)ethyl)amino)pyrimidin-2-yl)urea]",< 1000
6,Cc1cc(NCCc2ccccn2)nc(NC(=O)Nc2ccc(Cl)c(C(F)(F)F)c2)n1 [Compound 57],1000 to 10000
7,"Cc1cc(NCCCN(C)C)nc(NC(=O)Nc2ccc3c(c2)OCO3)n1 [Compound 281, 1-(benzo[d][1,3]dioxol-5-yl)-3-(4-((3-(dimethylamino)propyl)amino)-6-methylpyrimidin-2-yl)urea]",1000 to 10000
8,Cc1cc(NCCCc2cnc[nH]2)nc(NC(=O)Nc2ccc(F)c(C(F)(F)F)c2)n1 [Compound 115],< 1000
9,Cc1cc(NCC2CCCN(C)C2)nc(NC(=O)Nc2ccc(Cl)c(Cl)c2)n1 (stereo not shown) [Compound 16],< 1000
10,"CC(=O)NCCCNc1cc(C)nc(NC(=O)Nc2ccc3c(c2)OCCO3)n1 [Compound 308, N-(3-{2-[3-(2,3-dihydro-benzo[1,4]dioxin-6-yl)-ureido]-6-methyl-pyrimidin-4-ylamino}-propyl)-acetamide]",< 1000
11,COC(=O)CCNc1cc(C)nc(NC(=O)Nc2ccc(OC(F)(F)F)cc2)n1 [Compound 92],< 1000
12,Cc1cc(NCCCCN)nc(NC(=O)Nc2ccc(F)c(C(F)(F)F)c2)n1 [Compound 112],< 1000
13,"Cc1cc(NCCCN(C)C)nc(NC(=O)Nc2ccc3c(c2)OCCO3)n1 [Compound 291, 1-(2,3-dihydrobenzo[b][1,4]dioxin-6-yl)-3-(4-((3-(dimethylamino)propyl)amino)-6-methylpyrimidin-2-yl)urea]",< 1000
14,Cc1cc(NCCC(N)=O)nc(NC(=O)Nc2ccc(OC(F)(F)F)cc2)n1 [Compound 93],< 1000
15,Cc1cc(NCCN(C)C)nc(NC(=O)Nc2ccc(C(F)(F)F)cc2)n1 [Compound 203],< 1000
16,Cc1cc(NCCCc2cnc[nH]2)nc(NC(=O)Nc2ccc(C)c(C)c2)n1 [Compound 266],< 1000

row,SMILES,IC50 [nM]
1,"Cc1ccc(NC(=O)Nc2nc(C)cc(NCC3CCCNC3)n2)cc1 (stereo not shown) [Compound 249, 1-(4-methyl-6-((piperidin-3-ylmethyl)amino)pyrimidin-2-yl)-3-(p-tolyl)urea]",1000 to 10000
2,COc1ccc(NC(=O)Nc2nc(C)cc(NCCOCCO)n2)cc1 [Compound 132],< 1000
3,CNCCCNc1cc(C)nc(NC(=O)Nc2ccc(Cl)c(C(F)(F)F)c2)n1 [Compound 64],< 1000
4,"CNCCNc1cc(C)nc(NC(=O)Nc2ccccc2)n1 [Compound 82, 1-(4-methyl-6-((2-(methylamino)ethyl)amino)pyrimidin-2-yl)-3-phenylurea]",1000 to 10000
5,Cc1cc(NCCN(C)C)nc(NC(=O)Nc2ccc(Cl)c(C(F)(F)F)c2)n1 [Compound 48],1000 to 10000
6,Cc1cc(NCCCN)nc(NC(=O)Nc2ccc3c(c2)OCCO3)n1 [Compound 292],< 1000
7,CC(=O)NCCNc1cc(C)nc(NC(=O)Nc2cccc(C(F)(F)F)c2)n1 [Compound 277],1000 to 10000
8,CNCCCN(C)c1cc(C)nc(NC(=O)Nc2ccc(C(F)(F)F)cc2)n1 [Compound 205],1000 to 10000
9,"CNCCNc1cc(C)nc(NC(=O)Nc2ccc(OC(F)(F)F)cc2)n1 [Compound 98, 1-(4-methyl-6-((2-(methylamino)ethyl)amino)pyrimidin-2-yl)-3-(4-(trifluoromethoxy)phenyl)urea]",< 1000
10,Cc1cc(NCCN(C)C)nc(NC(=O)Nc2cccc(OC(F)(F)F)c2)n1 [Compound 174],1000 to 10000
11,Cc1cc(NCCCN)nc(NC(=O)Nc2ccc(OC(F)(F)F)cc2)n1 [Compound 89],< 1000
12,CCNc1cc(C)nc(NC(=O)Nc2ccc3c(c2)OCCO3)n1 [Compound 295],< 1000
13,COc1ccc(NC(=O)Nc2nc(C)cc(NCCc3ccccn3)n2)cc1 [Compound 134],1000 to 10000
14,"Cc1cc(NCCCN(C)C)nc(NC(=O)Nc2ccc(C(C)(C)C)cc2)n1 [Compound 301, 1-(4-(tert-butyl)phenyl)-3-(4-((3-(dimethylamino)propyl)amino)-6-methylpyrimidin-2-yl)urea]",< 1000
15,Cc1cc(NC2CCNC2)nc(NC(=O)Nc2ccc(F)c(C(F)(F)F)c2)n1 (stereo not shown) [Compound 123],< 1000
16,Cc1cc(NCCCN)nc(NC(=O)Nc2ccc(F)c(C(F)(F)F)c2)n1 [Compound 111],< 1000

# More lines, now with the values ahead:
row,IC50 [nM],SMILES
1,< 1000,"Cc1cc(NCCCO)nc(NC(=O)Nc2ccc(F)c(C(F)(F)F)c2)n1 [Compound 102, 1-(4-fluoro-3-(trifluoromethyl)phenyl)-3-(4-((3-hydroxypropyl)amino)-6-methylpyrimidin-2-yl)urea]"
2,< 1000,Cc1cccc(NC(=O)Nc2nc(C)cc(NCCCc3cnc[nH]3)n2)c1 [Compound 226]
3,1000 to 10000,COc1cccc(NC(=O)Nc2nc(C)cc(NCCCN(C)C)n2)c1 [Compound 141]
4,< 1000,"Cc1cc(NCCCO)nc(NC(=O)Nc2ccc(Cl)cc2)n1 [Compound 41, 3-{2-[3-(p-Chlorophenyl)ureido]-6-methyl-4-pyrimidinylamino}-propanol]"
5,1000 to 10000,COc1cccc(NC(=O)Nc2nc(C)cc(NCC(C)O)n2)c1 (stereo not shown) [Compound 147]
6,< 1000,"Cc1cccc(NC(=O)Nc2nc(C)cc(NCCCN(C)C)n2)c1 [Compound 209, 1-(4-((3-(dimethylamino)propyl)amino)-6-methylpyrimidin-2-yl)-3-(m-tolyl)urea]"
7,1000 to 10000,COc1cccc(NC(=O)Nc2nc(C)cc(NCC(O)CO)n2)c1 (stereo not shown) [Compound 151]
8,< 1000,CCCNc1cc(C)nc(NC(=O)Nc2cccc(C)c2)n1 [Compound 218]
9,< 1000,Cc1cc(NCCOCCO)nc(NC(=O)Nc2ccc(Cl)c(Cl)c2)n1 [Compound 18]
10,< 1000,Cc1cccc(NC(=O)Nc2nc(C)cc(NCCOCCO)n2)c1 [Compound 217]
11,< 1000,"CNCCNc1cc(C)nc(NC(=O)Nc2ccc(F)c(Cl)c2)n1 [Compound 169, 1-(3-chloro-4-fluorophenyl)-3-(4-methyl-6-((2-(methylamino)ethyl)amino)pyrimidin-2-yl)urea]"
12,< 1000,CNCCCNc1cc(C)nc(NC(=O)Nc2ccc(Cl)c(Cl)c2)n1 [Compound 29]
13,< 1000,"Cc1cc(NCCCN(C)C)nc(NC(=O)Nc2ccc(Cl)cc2)n1 [Compound 44, 1-{2-[3-(4-chloro-phenyl)ureido]-6-methyl-4-pyrimidin-ylamino}-3-(dimethylamino)propane]"
14,1000 to 10000,Cc1cc(NCCOCCO)nc(NC(=O)Nc2cccc(C(F)(F)F)c2)n1 [Compound 183]
15,1000 to 10000,COc1cccc(NC(=O)Nc2nc(C)cc(NCCN(C)C)n2)c1 [Compound 145]
16,< 1000,Cc1cc(NCCCN)nc(NC(=O)Nc2cccc(OC(F)(F)F)c2)n1 [Compound 177]
17,1000 to 10000,COC(=O)CCNc1cc(C)nc(NC(=O)Nc2cccc(C)c2)n1 [Compound 220]
18,< 1000,COc1ccc(NC(=O)Nc2nc(C)cc(NCCCCO)n2)cc1 [Compound 126]
19,1000 to 10000,"Cc1cc(NCCN)nc(NC(=O)Nc2ccccc2)n1 [Compound 72, 1-(4-((2-aminoethyl)amino)-6-methylpyrimidin-2-yl)-3-phenylurea]"
20,< 1000,Cc1cccc(NC(=O)Nc2nc(C)cc(NCC(O)CO)n2)c1 (stereo not shown) [Compound 223]
21,< 1000,CCNc1cc(C)nc(NC(=O)Nc2cccc(C)c2)n1 [Compound 224]
22,< 1000,Cc1cc(NCCN)nc(NC(=O)Nc2cccc(C(F)(F)F)c2)n1 [Compound 182]
23,1000 to 10000,CNCCCCNc1cc(C)nc(NC(=O)Nc2cccc(OC)c2)n1 [Compound 154]
24,< 1000,Cc1cc(NCCO)nc(NC(=O)Nc2cccc(C(F)(F)F)c2)n1 [Compound 184]
25,< 1000,"Cc1cc(NCCCO)nc(NC(=O)Nc2cccc(Cl)c2)n1 [Compound 43, 3-{2-[3-(m-chlorophenyl)ureido]-6-methyl-4-pyrimidinylamino}-propanol]"
26,< 1000,"Cc1cc(NCCCN(C)C)nc(NC(=O)Nc2cccc(C(F)(F)F)c2)n1 [Compound 180, 1-(4-((3-(dimethylamino)propyl)amino)-6-methylpyrimidin-2-yl)-3-(3-(trifluoromethyl)phenyl)urea]"
27,< 1000,Cc1cc(NCCOCCO)nc(NC(=O)Nc2ccc(F)c(Cl)c2)n1 [Compound 166]
28,< 1000,Cc1cccc(NC(=O)Nc2nc(C)cc(NCCCCN(C)C)n2)c1 [Compound 227]
29,< 1000,"Cc1cc(NCCCO)nc(NC(=O)Nc2ccc(OC(F)(F)F)cc2)n1 [Compound 86, 1-(4-((3-hydroxypropyl)amino)-6-methylpyrimidin-2-yl)-3-(4-(trifluoromethoxy)phenyl)urea]"
